In PubChem BioAssay AID2060600 (Molecular Pharmacology Branch, DTP, NCI, 2025):
“And” between values parts separate entries of the source, which are not always exact repeats. Equal entries are not always repeated.

Tested on: 996289-038-R-J1-PDC complex spheroid viability
Assay: Anticancer human tumor 996289-038-R-J1-PDC patient-derived colon adenocarcinoma cell line growth inhibition [CLK]
Details: for viability, T/C: stronger effect = lower value
Procedure, shortened: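 Multi-cell-type spheroids combined patient-derived tumor cells with HUVEC endothelial cells and human mesenchymal stem cells. Paired agents were dosed in half-log steps down from about clinical Cmax, or from 10 microM where Cmax was unknown.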

[1] = curve of first compound, second compound 0.0316 µM
[2] = curve of first compound, second compound 0.1 µM
[3] = curve of first compound, second compound 0.316 µM
[4] = curve of first compound, second compound 1 µM
[5] = curve of first compound, second compound 3.16 µM
[6] = curve of first compound, second compound 10 µM
[7] = second compound 0.0316 µM, first compound 0.0316 µM
[8] = second compound 0.0316 µM, first compound 0.1 µM
[9] = second compound 0.0316 µM, first compound 0.316 µM
[10] = second compound 0.0316 µM, first compound 1 µM
[11] = second compound 0.0316 µM, first compound 3.16 µM
[12] = second compound 0.0316 µM, first compound 10 µM
[13] = second compound 0.1 µM, first compound 0.0316 µM
[14] = second compound 0.1 µM, first compound 0.1 µM
[15] = second compound 0.1 µM, first compound 0.316 µM
[16] = second compound 0.1 µM, first compound 1 µM
[17] = second compound 0.1 µM, first compound 3.16 µM
[18] = second compound 0.1 µM, first compound 10 µM
[19] = second compound 0.316 µM, first compound 0.0316 µM
[20] = second compound 0.316 µM, first compound 0.1 µM
[21] = second compound 0.316 µM, first compound 0.316 µM
[22] = second compound 0.316 µM, first compound 1 µM
[23] = second compound 0.316 µM, first compound 3.16 µM
[24] = second compound 0.316 µM, first compound 10 µM
[25] = second compound 1 µM, first compound 0.0316 µM
[26] = second compound 1 µM, first compound 0.1 µM
[27] = second compound 1 µM, first compound 0.316 µM
[28] = second compound 1 µM, first compound 1 µM
[29] = second compound 1 µM, first compound 3.16 µM
[30] = second compound 1 µM, first compound 10 µM
[31] = second compound 3.16 µM, first compound 0.0316 µM
[32] = second compound 3.16 µM, first compound 0.1 µM
[33] = second compound 3.16 µM, first compound 0.316 µM
[34] = second compound 3.16 µM, first compound 1 µM
[35] = second compound 3.16 µM, first compound 3.16 µM
[36] = second compound 3.16 µM, first compound 10 µM
[37] = second compound 10 µM, first compound 0.0316 µM
[38] = second compound 10 µM, first compound 0.1 µM
[39] = second compound 10 µM, first compound 0.316 µM
[40] = second compound 10 µM, first compound 1 µM
[41] = second compound 10 µM, first compound 3.16 µM
[42] = second compound 10 µM, first compound 10 µM
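Note: spheroids exposed to the agents for 7 days before readout.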

## CC(Nc1ccc2c(c1)OCCn1cc(N3C(=O)OCC3C(F)F)nc1-2)C(N)=O (stereo not drawn) + CNC(=O)c1ccc(Nc2nc(OC3CCCC3)c3c(-c4ccc5nc(C)oc5c4)c[nH]c3n2)c(OC)c1
[1]
  IC50: > 10 µM
[2]
  IC50: 8.75 µM
[3]
  IC50: 0.655 µM
[4]
  IC50: 0.0453 µM
[5]
  IC50: 0.0489 µM
[6]
  IC50: < 0.0316 µM
[7]
  viability, T/C: 113%
[8]
  viability, T/C: 92.9%
[9]
  viability, T/C: 83.4%
[10]
  viability, T/C: 69.1%
[11]
  viability, T/C: 60.2%
[12]
  viability, T/C: 49.7%
[13]
  viability, T/C: 114%
[14]
  viability, T/C: 97.3%
[15]
  viability, T/C: 82.1%
[16]
  viability, T/C: 70.9%
[17]
  viability, T/C: 61.1%
[18]
  viability, T/C: 47.4%
[19]
  viability, T/C: 69.1%
[20]
  viability, T/C: 62.3%
[21]
  viability, T/C: 53%
[22]
  viability, T/C: 47.4%
[23]
  viability, T/C: 42.2%
[24]
  viability, T/C: 32.2%
[25]
  viability, T/C: 52.9%
[26]
  viability, T/C: 43.7%
[27]
  viability, T/C: 38.3%
[28]
  viability, T/C: 31.5%
[29]
  viability, T/C: 29.2%
[30]
  viability, T/C: 24.4%
[31]
  viability, T/C: 53.7%
[32]
  viability, T/C: 44.8%
[33]
  viability, T/C: 33.1%
[34]
  viability, T/C: 31.5%
[35]
  viability, T/C: 25.4%
[36]
  viability, T/C: 21.9%
[37]
  viability, T/C: 46.7%
[38]
  viability, T/C: 42.8%
[39]
  viability, T/C: 31.2%
[40]
  viability, T/C: 30.6%
[41]
  viability, T/C: 27.1%
[42]
  viability, T/C: 21.8%

## COc1c(OCCCN2CCOCC2)ccc2c3n(c(=NC(=O)c4cnc(N)nc4)nc12)CCN3 + CNC(=O)c1ccc(Nc2nc(OC3CCCC3)c3c(-c4ccc5nc(C)oc5c4)c[nH]c3n2)c(OC)c1
[1]
  IC50: 0.123 µM
[2]
  IC50: 0.0973 µM
[3]
  IC50: 0.0289 µM
[4]
  IC50: 0.00767 µM
[5]
  IC50: 0.00386 µM
[6]
  IC50: < 0.00316 µM
Second compound 0.0316 µM, first compound 0.00316 µM
  viability, T/C: 112%
Second compound 0.0316 µM, first compound 0.01 µM
  viability, T/C: 96.5%
[7]
  viability, T/C: 72.6%
[8]
  viability, T/C: 54.6%
[9]
  viability, T/C: 35.4%
[10]
  viability, T/C: 25.2%
Second compound 0.1 µM, first compound 0.00316 µM
  viability, T/C: 112%
Second compound 0.1 µM, first compound 0.01 µM
  viability, T/C: 96.1%
[13]
  viability, T/C: 71.8%
[14]
  viability, T/C: 48.7%
[15]
  viability, T/C: 33.8%
[16]
  viability, T/C: 21.2%
Second compound 0.316 µM, first compound 0.00316 µM
  viability, T/C: 70.2%
Second compound 0.316 µM, first compound 0.01 µM
  viability, T/C: 62.8%
[19]
  viability, T/C: 47.7%
[20]
  viability, T/C: 35.5%
[21]
  viability, T/C: 22.9%
[22]
  viability, T/C: 14.4%
Second compound 1 µM, first compound 0.00316 µM
  viability, T/C: 59.1%
Second compound 1 µM, first compound 0.01 µM
  viability, T/C: 46.5%
[25]
  viability, T/C: 33.8%
[26]
  viability, T/C: 19.7%
[27]
  viability, T/C: 15.6%
[28]
  viability, T/C: 13.3%
Second compound 3.16 µM, first compound 0.00316 µM
  viability, T/C: 51.2%
Second compound 3.16 µM, first compound 0.01 µM
  viability, T/C: 41.9%
[31]
  viability, T/C: 29.5%
[32]
  viability, T/C: 20.7%
[33]
  viability, T/C: 13.5%
[34]
  viability, T/C: 11.7%
Second compound 10 µM, first compound 0.00316 µM
  viability, T/C: 46.6%
Second compound 10 µM, first compound 0.01 µM
  viability, T/C: 40.4%
[37]
  viability, T/C: 28.9%
[38]
  viability, T/C: 18.4%
[39]
  viability, T/C: 12.7%
[40]
  viability, T/C: 10.5%

## CC1(C)CCC(CN2CCN(c3ccc(C(=O)NS(=O)(=O)c4ccc(NCC5CCOCC5)c([N+](=O)[O-])c4)c(Oc4cnc5[nH]ccc5c4)c3)CC2)=C(c2ccc(Cl)cc2)C1 + CNC(=O)c1ccc(Nc2nc(OC3CCCC3)c3c(-c4ccc5nc(C)oc5c4)c[nH]c3n2)c(OC)c1
[1]
  IC50: 9.12 µM
[2]
  IC50: 8.96 µM
[3]
  IC50: 7.56 µM
[4]
  IC50: 6.26 µM
[5]
  IC50: 5.76 µM
[6]
  IC50: 5.18 µM
[7]
  viability, T/C: 128%
[8]
  viability, T/C: 110%
[9]
  viability, T/C: 115%
[10]
  viability, T/C: 127%
[11]
  viability, T/C: 139%
[12]
  viability, T/C: 43.5%
[13]
  viability, T/C: 125%
[14]
  viability, T/C: 123%
[15]
  viability, T/C: 138%
[16]
  viability, T/C: 119%
[17]
  viability, T/C: 134%
[18]
  viability, T/C: 41.9%
[19]
  viability, T/C: 80.2%
[20]
  viability, T/C: 82.7%
[21]
  viability, T/C: 88.7%
[22]
  viability, T/C: 90.7%
[23]
  viability, T/C: 103%
[24]
  viability, T/C: 37.5%
[25]
  viability, T/C: 67.2%
[26]
  viability, T/C: 67.7%
[27]
  viability, T/C: 74%
[28]
  viability, T/C: 74.7%
[29]
  viability, T/C: 100%
[30]
  viability, T/C: 31.6%
[31]
  viability, T/C: 65%
[32]
  viability, T/C: 61.7%
[33]
  viability, T/C: 67.1%
[34]
  viability, T/C: 70.7%
[35]
  viability, T/C: 84.1%
[36]
  viability, T/C: 32%
[37]
  viability, T/C: 61.5%
[38]
  viability, T/C: 59.1%
[39]
  viability, T/C: 61.3%
[40]
  viability, T/C: 72.7%
[41]
  viability, T/C: 81.3%
[42]
  viability, T/C: 27%

## C=CC(=O)N1CCN(c2nc(=O)n(-c3c(C)ccnc3C(C)C)c3nc(-c4c(O)cccc4F)c(F)cc23)C(C)C1 (stereo not drawn)
Compound 0.0316 µM
  viability, T/C: 97.5% and 115%
Compound 0.1 µM
  viability, T/C: 85.3% and 98%
Compound 0.316 µM
  viability, T/C: 109% and 101%
Compound 1 µM
  viability, T/C: 112% and 114%
Compound 3.16 µM
  viability, T/C: 124% and 117%
Compound 10 µM
  viability, T/C: 103% and 116%
Curve of compound
  IC50: > 10 µM
